Test results: patent US9889092B2, “Low density lipoprotein nanocarriers for targeted delivery of omega-3 polyunsaturated fatty acids to cancer” (The Board of Regents of the University of Texas System, priority 2013, dated 2018)

Experiments:
[1] = Oxidative stability of LDL nanoparticles (peroxide value, HPLC DHA content); format: physicochemical; details: under air at 55° C. for 5 hrs
From the text: FIGS. 4A-D. Oxidative stability: (FIG. 4A) HPLC determination of DHA content in LDL nanoparticles and DHA in heptane; (**) p<0.01 DHA in heptane versus LDL-DHA, after 14 days; (***) p<0.001, DHA in heptane versus LDL-DHA, after 21 and 28 days. (FIG. 4B) Peroxide indices of LDL, DHA in heptane, and LDL-DHA nanoparticles. Samples from FIG. 4A and FIG. 4B were stored at ambient conditions and were subjected to HPLC or peroxide analysis at baseline, 7, 14, 21, and 28 days; (**) p<0.01, DHA in heptane versus LDL-DHA after 14 days; (***) p<0.001, LDL or DHA in heptane versus LDL-DHA after 21 and 28 days; (****) p<0.0001, LDL versus LDL-DHA, after 28 days. […] DHA content is expressed as a percentage of baseline control. The peroxide index is expressed as mEq of peroxide/Kg of lipid.
Oxidative stability of LDL nanoparticles. […] Absorbance of red color formed from the presence of ferric ion was measured at 500 nm using UV-visible spectrophotometer (UV 1800, Shimadzu, USA) and the concentration was determined using a calibration curve of ferric chloride (FeCl3). […] The peroxide value was calculated using the following formula: PV=[Fe3+]/(55.84×g of lipids×2) where 55.84 is the molecular weight of iron. Results were expressed as mEq peroxide/kg lipid.

TIB-75 cells = test: Cell toxicity assay (MTS), TIB-75; format: cell-based, mouse; details: 40 μM LDL-DHA with 100 or 200 μM Vitamin E, 72 hours
Method: Cell culture. The mouse liver cell line TIB-73 (BNL CL.2) and its malignant counterpart TIB-75 (BNL 1MEA.7R.1) were obtained from ATCC (Manassas, Va.) and cultured in Dulbeco's modified Eagle's medium (DMEM) supplemented with 10% fetal bovine serum (FBS). Cells were grown at 37° C. in an atmosphere of 5% CO2 in a humidified incubator.
Cell toxicity assay (MTS). Each cell type was seeded in 96-well plates (2×10^3 cells/well). After 48 hrs of culture, the cells received various concentrations of the LDL-DHA nanoparticles ranging from 0 to 100 μM (DHA). For controls (LDL-OA/TO) dosing went as high as 200 μM. At the end of the 72 hr treatment period, the cell viability was measured by the MTS assay as recommended by the manufacturer. In brief, 20 μL MTS solution was added to each well and cells were incubated at 37° C. for 4 hrs followed by absorbance readings at 490 nm. The relative cell viability is expressed as a percentage of the non treated controls.

Molecule | oxidative stability in final stress test [1] | effect of co-incubation on LDL-DHA cytotoxicity in TIB-75 cells (TIB-75 cells)
CC/C=C\C/C=C\C/C=C\C/C=C\C/C=C\C/C=C\CCC(=O)O [DHA in heptane, docosahexaenoic acid] | significant degradative peroxidation | 
vitamin E |  | effectively abrogate the cytotoxicity of LDL-DHA
